According to paper PMC4232510, “Identification of Functionally Important Residues of the Rat P2X4 Receptor by Alanine Scanning Mutagenesis of the Dorsal Fin and Left Flipper Domains” (PLoS ONE, 2014):
Residue numbers refer to the chain shown, from its start.

Assays:
rP2X4R E285A mutant = molecular target: T1, rP2X4R E285A mutant (Rattus norvegicus, UniProt P51577, E285A); assay: whole-cell patch clamp, HEK293T cells expressing mutant; type: cell-based
T1 construct: expressed in transfected cells; host or cells: HEK293T
T1 sequence (P51577 1-388 E285A): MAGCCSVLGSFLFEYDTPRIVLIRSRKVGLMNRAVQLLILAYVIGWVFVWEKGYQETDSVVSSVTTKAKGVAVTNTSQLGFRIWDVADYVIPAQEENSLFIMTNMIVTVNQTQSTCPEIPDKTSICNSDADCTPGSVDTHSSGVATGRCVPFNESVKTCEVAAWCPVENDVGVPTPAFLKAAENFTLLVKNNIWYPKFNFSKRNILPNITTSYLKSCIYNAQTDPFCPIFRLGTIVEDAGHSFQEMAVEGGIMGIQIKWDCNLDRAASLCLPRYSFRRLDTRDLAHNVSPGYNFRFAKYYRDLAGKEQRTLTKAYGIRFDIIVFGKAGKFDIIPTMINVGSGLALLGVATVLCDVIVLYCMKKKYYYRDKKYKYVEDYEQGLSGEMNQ

rP2X4R N287A mutant = molecular target: T2, rP2X4R N287A mutant (Rattus norvegicus, UniProt P51577, N287A); assay: as above; type: cell-based
T2 construct: expressed in transfected cells; host or cells: HEK293T
T2 sequence (P51577 1-388 N287A): T1 sequence (P51577 1-388 E285A) with A285E, N287A

P2X1R N204A = system: P2X1R N204A; design: method as in PMID 16371009; settings: cited from earlier work
P2X4R H286A = system: P2X4R H286A; design: method as in PMID 17663752, PMID 15632318, PMID 12819199, PMID 15246547; settings: cited from earlier work
P2X1R G288A = system: P2X1R G288A; design: key: n.f.: non-functional mutants; ↑: mutant with significant increased EC50 in comparison to WT (values represent fold increase); ≈: close to WT receptor; D: affected time-constant of the desensitizing current response; settings: cited from earlier work
P2X3R N279A = system: P2X3R N279A; design: method as in PMID 21098022; settings: cited from earlier work
[1] = 100 µM ATP 60 s, biexponential fit
[2] = contribution of τdes2, 100 µM ATP 60 s
[3] = decay after removal of 1 or 3 µM ATP, 3 µM IVM
[4] = naïve receptors, 2–5 s application
[5] = 3 µM IVM 4-6 min vs IVM-untreated

## Nc1ncnc2c1ncn2[C@@H]1O[C@H](COP(=O)(O)OP(=O)(O)OP(=O)(O)O)[C@@H](O)[C@H]1O [ATP]
rP2X4R E285A mutant; [1]
  τdes1: 0.9 ± 0.2 s
  τdes2: 8.5 ± 3.6 s
rP2X4R E285A mutant; 100–1000 µM ATP
  Imax: 2.0 ± 0.5 nA
rP2X4R E285A mutant; ATP after 3 µM IVM 4-6 min
  Imax+IVM: 2.6 ± 0.6 nA
rP2X4R E285A mutant; [2]
  A2 /(A1+A2): 65 ± 2%
rP2X4R E285A mutant; [3]
  τoff +IVM: 24 ± 4.3 s
rP2X4R E285A mutant; [4]
  EC50: 7.1 ± 3 µM
rP2X4R E285A mutant; weighted, 100 µM ATP 60 s
  τdes: 6.0 ± 2.6 s
rP2X4R N287A mutant; [1]
  τdes1: 1.6 ± 0.1 s
  τdes2: 10.2 ± 3.0 s
rP2X4R N287A mutant; 100–1000 µM ATP
  Imax: 1.6 ±0.2 nA
rP2X4R N287A mutant; ATP after 3 µM IVM 4-6 min
  Imax+IVM: 4.0 ± 0.6 nA
rP2X4R N287A mutant; [2]
  A2 /(A1+A2): 75 ± 16%
rP2X4R N287A mutant; [3]
  τoff +IVM: 16 ± 2.5 s
rP2X4R N287A mutant; [4]
  EC50: 3.2 ± 1 µM
rP2X4R N287A mutant; weighted, 100 µM ATP 60 s
  τdes: 7.1 ± 0.5 s
P2X1R N204A
  fold increase of EC50 for ATP in comparison to WT: N204A: ↑3,5x[45]
P2X4R H286A
  fold increase of EC50 for ATP in comparison to WT: H286A: ↑2–4x[10], [52], [57], [60]
P2X1R G288A
  change in EC50 for ATP: ≈
P2X3R N279A
  fold increase of EC50 for ATP in comparison to WT: N279A: ↑20x[4]

## CC[C@H](C)[C@H]1O[C@]2(CC[C@@H]1C)C[C@@H]1C[C@@H](C/C=C(\C)[C@@H](O[C@H]3C[C@H](OC)[C@@H](O[C@H]4C[C@H](OC)[C@@H](O)[C@H](C)O4)[C@H](C)O3)[C@@H](C)/C=C/C=C3\CO[C@@H]4[C@H](O)C(C)=C[C@@H](C(=O)O1)[C@]34O)O2 [IVM, ivermectin]
rP2X4R E285A mutant; [5]
  Fold incr. Imax: 1.3 ± 0.4 fold
rP2X4R N287A mutant; [5]
  Fold incr. Imax: 3.3 ± 0.4 fold
